Converted amounts (≈) assume the structure as drawn. Where two headings read alike, the source gives them in different places.
Tests used:
Staphylococcus aureaus = conditions: among 1-alkanols having 10 to 16 carbon atoms; Kato et al. (1980); cited from earlier work
Propionibacterium acnes = experiment: Minimum inhibitory concentration (MIC) against Propionibacterium acnes (Test Example 1); type: cell-based, Propionibacterium acnes (ATCC 6919); conditions: Cutibacterium acnes
Method: The minimum inhibitory concentration (MIC) of 1-pentadecanol against Propionibacterium acnes was determined as follows.
In 1 l of purified water was dissolved 59.0 g of a GAM (Gifu anaerobic medium) bouillon medium (Nissui Pharmaceutical Co., Ltd.) and 1-pentadecanol was added to the bouillon solution to give a concentration of 100 μg/ml. The mixture was stepwise diluted two times with the same medium, followed by sterilization.
A 10 ml aliquot of the mixture was put in a test tube and inoculated with 0.1 ml of the culture of Propionibacterium acnes (ATCC 6919) which had been precultured so as to give a cell density of 1×10^8 cells/ml. The system was static-cultured under anaerobic conditions for 48 hours, and the turbidity was measured at a wavelength of 660 nm to obtain MIC (μg/ml).
For comparison, MIC of 1-dodecanol and 1-hexadecanol, which have relatively strong antibacterial activity on several bacteria and are generally used as a base of cosmetics, against Propionibacterium acnes was obtained in the same manner.

[1] = GAM bouillon medium, anaerobic static culture 48 hours, turbidity at 660 nm, read-out: MIC

| MIC (Propionibacterium acnes; [1]) [µg/mL] | Structure (SMILES) | effectiveness on Staphylococcus aureaus (Staphylococcus aureaus) | MIC (Propionibacterium acnes; 48 h) [µg/mL] |
| --- | --- | --- | --- |
| 25 (≈ 134 µM) | CCCCCCCCCCCCO [1-dodecanol] | the most effective |  |
| > 200 | CCCCCCCCCCCCCCCCO [1-hexadecanol] |  |  |
|  | CCCCCCCCCCCCCCCO [1-pentadecanol] |  | 3.13 (≈ 13.7 µM) |
